Legend:
hSIRT3 = biological target: T1, hSIRT3 (Homo sapiens, UniProt Q9NTG7); assay: In vitro deacetylase assay on mitochondrial lysates of hSIRT3-transfected cells; format: biochemical; conditions: lysates of hSIRT3-transfected HEK293T cells, compared with untransfected lysates
T1 construct: proteolytically cleaved by mitochondrial matrix processing peptidase (MPP) between residues Ser101 and Ilel02; expressed in transfected cells; host or cells: HEK293T cells, mitochondrial lysate in TXIP-1 buffer
T1 sequence (Q9NTG7 102-399 limits assumed): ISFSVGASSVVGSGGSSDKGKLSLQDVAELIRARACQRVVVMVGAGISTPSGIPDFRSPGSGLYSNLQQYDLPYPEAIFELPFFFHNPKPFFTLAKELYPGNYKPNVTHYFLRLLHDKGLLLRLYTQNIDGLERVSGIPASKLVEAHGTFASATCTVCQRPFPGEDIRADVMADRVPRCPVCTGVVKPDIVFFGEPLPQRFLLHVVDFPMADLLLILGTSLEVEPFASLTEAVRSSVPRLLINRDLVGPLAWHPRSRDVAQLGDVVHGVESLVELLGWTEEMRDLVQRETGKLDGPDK
Procedure: Deacetylase assays were performed in a total volume of 100 μl SIRT deacetylase buffer (4 mM MgCl2, 0.2 mM dithiothreitol, 50 mM Tris-HCl, pH 9.0) containing immunoprecipitated proteins or mitochondrial lysates and a peptide corresponding to the first the first 22 amino acids of histone 4 chemically acetylated in vitro (27). Where indicated, 1 mM NAD, 5 mM nicotinamide (both from Sigma, St. Louis, Mo.) or 400 nM TSA (WAKO, Richmond, Va.) were added. Deacetylation reactions were stopped after 2 hours of incubation at room temperature by adding 25 μl stop solution (0.1 M HCl, 0.16 M acetic acid). Released acetate was extracted into 500 μl ethyl acetate and samples were vigorously shaken for 15 minutes. After centrifugation for 5 minutes, 400 μl of the ethyl acetate fraction was mixed with 5 ml scintillation fluid (Packard, Meriden, Conn.) and the released radioactivity was measured using a liquid scintillation counter.
In vitro deacetylase activities of equal amounts of mitochondrial lysate are shown.

[1] = system: NAD-dependent deacetylase activity in human mitochondrial fractions prepared from HEK293T cells; assay: In vitro deacetylase assay on mitochondrial lysates, acetylated histone H4 peptide; conditions: NAD 1 mM, 2 hrs
[2] = system: import of hSIRT3 into isolated mammalian mitochondria; assay: Import of radiolabeled hSIRT3 into isolated mitochondria; conditions: antimycin 8 μM, oligomycin 20 μM and valinomycin 1 μM added together to dissipate the transmembrane potential
Procedure: Import into isolated mitochondria was carried out as previously reported (22). Proteins were synthesized in the presence of [^35S]-methionine by coupled transcription-translation in reticulocyte lysate (Promega, Madison, Wis.) (23). In vitro translation reactions were centrifuged at 108,000×g, 2° C. for 15 min and adjusted to 250 mM sucrose. Import reactions contained 5% (v/v) reticulocyte lysate in import buffer (3% (w/v) fatty-acid free bovine serum albumin (BSA), 250 mM sucrose, 80 mM KCl, 5 mM MgCl2, 2 mM KH2PO4, 5 mM L-methionine, 10 mM 3-[N-morpholino]propanesulfonic acid-KOH, pH 7.2). In each import reaction, 50 μg of freshly isolated mammalian mitochondria were mixed with radiolabeled proteins and incubated at 30° C. ATP (2 mM) and sodium succinate (10 mM) were added to maintain coupling of isolated mitochondria. Import was stopped by addition of valinomycin (1 μM) and transfer to 0°C.
Where indicated, samples were treated with proteinase K (50 μg/ml) for 10 min on ice. Protease treatment was stopped by addition of 2 mM phenylmethylsulfonyl fluoride (PMSF). Mitochondria were reisolated by centrifugation at 10,000×g for 5 min at 4° C., washed in SEM buffer and recentrifuged as above. Mitochondrial pellets were resuspended in SDS sample buffer containing dithiothreitol (DTT) and heated to 95° C. for 5 min. Samples were subjected to SDS-PAGE. Dried gels were exposed to Biomax MR film (Kodak, Rochester, N.Y.) at −70° C. and analyzed on a Fuji FUJIX BAS 1000 phosphorimager. […]
FIG. 4. […] After reisolation of mitochondria and SDS-PAGE, the amounts of imported proteins were quantified by phosphorimaging. FIG. 4B, Quantitation of imported protein by phosphorimaging. […] Reisolated and washed mitochondria were lysed in SDS sample buffer and analyzed by SDS-PAGE. […] FIG. 4E, Import efficiency of individual hSIRT3 mutants was quantitated in relation to their standards by phosphorimaging. […]

Molecule	effect on import of hSIRT3 across the mitochondrial membrane [2]	other results
CC(/C=C/C(=O)NO)=C\[C@@H](C)C(=O)c1ccc(N(C)C)cc1 [TSA, trichostatin A]	–	sensitivity of deacetylase activity of mitochondrial lysates overexpressing hSIRT3 (hSIRT3): same properties as untransfected mitochondrial lysates; effect on NAD-dependent deacetylase activity of mitochondrial lysate ([1]; TSA 400 nM): no effect
NC(=O)c1cccnc1 [nicotinamide]	–	effect on NAD-dependent deacetylase activity of mitochondrial lysate ([1]; nicotinamide 5 mM): suppressed
CC[C@H]1/C=C/C=C/C[C@@H](C)[C@H](O)[C@@](C)(O)C(=O)[C@@H](C)[C@H](O)[C@@H](C)C(=O)[C@@H](C)[C@H](O)[C@@H](C)/C=C/C(=O)O[C@@H]2[C@H](C)[C@H](CC1)O[C@]1(CC[C@H](C)[C@H](C[C@@H](C)O)O1)[C@H]2C [oligomycin]	inhibited	–
CC(C)[C@@H]1NC(=O)[C@H](C)OC(=O)[C@@H](C(C)C)NC(=O)[C@@H](C(C)C)OC(=O)[C@H](C(C)C)NC(=O)[C@H](C)OC(=O)[C@@H](C(C)C)NC(=O)[C@@H](C(C)C)OC(=O)[C@H](C(C)C)NC(=O)[C@H](C)OC(=O)[C@@H](C(C)C)NC(=O)[C@@H](C(C)C)OC1=O [valinomycin]	inhibited	–
antimycin	inhibited	–
